We go through 29 compounds from patent US20170226059A1, “APOE4-TARGETED THERAPUTICS THAT INCREASE SIRT1” (The Regents of the University of California, priority 2014, published 2017).

The first test relates to SirT1. As to the kind of experiment: Primary AlphaLISA screening assay: SirT1 levels in N2a cells stably transfected with ApoE4. It counts as cell-based, mouse. The following applies: N2A neuroblastoma cells stably transfected with ApoE4. The protocol: We have developed a primary screening assay that is HTS formatable; the assay would be done on N2a cells (mouse neuroblastoma cells) that have been stably transfected with ApoE3 and ApoE4. The cells are treated with drugs and the SirT1 levels are measured using the AlphaLISA assay that we have developed, e.g., as shown in FIG. 11. The illustrated AlphaLISA uses an antibody (Ab, E104, Abcam) that binds the C-terminus of SirT1 and is on the acceptor bead. The N-terminal Ab (D1D7, Abcam) is biotinylated and binds to the donor bead. For the primary assay the Neuro-2a (N2a) cells stably expressing similar levels of hApoE3 or hApoE4 are used. The primary assay can be done in triplicate. The N2a cells have reasonably good endogenous levels of APP thus avoiding the necessity of APP transfection. In general, for the assays N2a cells stably transfected with hApoE3 (E3) or hApoE4 (E4) are plated, e.g., at […] in 384-well plates in […] of growth medium and allowed to attached for 3 h. The E4 cells are treated with compounds overnight, E3 cells are controls. The following day, growth medium is removed and cells are lysed with AlphaLysis buffer complemented with protease and phosphatase inhibitors.
Then, the AlphaLISA assay is run and molecules that can increase or reverse the SirT1 levels in ApoE4 cells are identified. A preliminary estimate, based on the initial screening which yielded two reproducible “hits” from a set of 1000 compounds, which is a 0.2% hit-rate. […] Our initial screening was done on a small library of about 1000 compounds. The assay is translatable to a HTS format.
(In general: In Alpha technology, singlet oxygen from a donor bead excites a nearby acceptor bead.)
Take `Clc1cccc(Cl)c1N=C1NCCN1` [Compound A02, clonidine]: the “SirT1 levels (dose-response)” value is on record as “flat”.

The same test, now with this note: initial screen of about 1000 compounds.
On to `CNCCC(Oc1ccc(C(F)(F)F)cc1)c1ccccc1` (stereo not drawn) [Prozac], for which the “effect on SirT1 levels in initial screen” value is reported as “no affect on SirT1 levels”.

Still in this test, the particulars now being: primary screening assay, ApoE4 cells.
In the case of `CC(C)(Cc1ccc(Cl)cc1)OC(=O)CN` [Compound 7, 1-(4-chlorophenyl)-2-methylpropan-2-yl 2-aminoethanoate], the “Primary Assay (SrT1 increase)” value was “II (activity II 10-30%)”.

Regarding `Cc1ccc(CC(C)(C)OC(=O)C(C)N)cc1` (stereo not drawn) [Compound 6, 2-methyl-1-p-tolylpropan-2-yl 2-aminopropanoate], the “Primary Assay (SrT1 increase)” value was “II (activity II 10-30%)”.

For `CC(N)C(=O)OC(C)(C)CCc1ccc(Cl)cc1` (stereo not drawn) [Compound 12, 4-(4-chlorophenyl)-2-methylbutan-2-yl 2-aminopropanoate], the “Primary Assay (SrT1 increase)” value is on record as “II (activity II 10-30%)”.

Take `CC(C)(Cc1ccc(Cl)cc1)OC(=O)C(N)Cc1ccccc1` (stereo not drawn) [Compound 2, 1-(4-chlorophenyl)-2-methylpropan-2-yl 2-amino-3-phenylpropanoate]: the “Primary Assay (SrT1 increase)” value is reported as “I (activity I < 10%)”.

For the compound `CC(N)C(=O)OC(C)(C)Cc1ccccc1` (stereo not drawn) [Compound 1, 2-methyl-1-phenylpropan-2-yl 2-aminopropanoate], the “Primary Assay (SrT1 increase)” value is listed as “II (activity II 10-30%)”.

With `CC(N)C(=O)OC(C)(C)Cc1cc(F)cc(F)c1` (stereo not drawn) [Compound 14, 1-(3,5-difluorophenyl)-2-methylpropan-2-yl 2-aminopropanoate], the “Primary Assay (SrT1 increase)” value is “III (activity III > 30 SrT1 increase)”.

In the case of `CC(N)C(=O)OC1(Cc2ccc(Cl)cc2)CCC1` (stereo not drawn) [Compound 9, 1-(4-chlorobenzyl)cyclobutyl 2-aminopropanoate], the “Primary Assay (SrT1 increase)” value is on record as “I (activity I < 10%)”.

On to `CC(N)C(=O)OC1(Cc2ccc(Cl)cc2)CCCCC1` (stereo not drawn) [Compound 10, 1-(4-chlorobenzyl)cyclohexyl 2-aminopropanoate], for which the “Primary Assay (SrT1 increase)” value is recorded as “I (activity I < 10%)”.

As for `CC(C)(Cc1ccc(Cl)cc1)OC(=O)C(N)CCCCN` (stereo not drawn) [Compound 13, 1-(4-chlorophenyl)-2-methylpropan-2-yl 2,6-diaminohexanoate], the “Primary Assay (SrT1 increase)” value was “II (activity II 10-30%)”.

Turning to `CCC(C)C(N)C(=O)OC(C)(C)Cc1ccc(Cl)cc1` (stereo not drawn) [Compound 11, 1-(4-chlorophenyl)-2-methylpropan-2-yl 2-amino-3-methylpentanoate], the “Primary Assay (SrT1 increase)” value is given as “II (activity II 10-30%)”.

Turning to `CC(N)C(=O)NC(C)(C)Cc1ccc(F)c(F)c1` (stereo not drawn) [Compound 22, 2-amino-N-(1-(3,4-difluorophenyl)-2-methylpropan-2-yl)propanamide], the “Primary Assay (SrT1 increase)” value was “III (activity III > 30 SrT1 increase)”.

Regarding `CC(C)(Cc1ccc(Cl)cc1)OC(=O)C1CCCCN1` (stereo not drawn) [Compound 19, 1-(4-chlorophenyl)-2-methylpropan-2-yl piperidine-2-carboxylate], the “Primary Assay (SrT1 increase)” value was “II (activity II 10-30%)”.

As to `CC(C)CC(N)C(=O)OC(C)(C)Cc1ccc(Cl)cc1` (stereo not drawn) [Compound 5, 1-(4-chlorophenyl)-2-methylpropan-2-yl 2-amino-4-methylpentanoate], the “Primary Assay (SrT1 increase)” value was “I (activity I < 10%)”.

For the compound “1-(4-chlorophenyl)-2-methylpropan-2-yl pyrrolidine-2-carboxylate [Compound 20]”, the “Primary Assay (SrT1 increase)” value was “I (activity I < 10%)”.

“2-amino-N-(1-(4-chlorophenyl)-2-methylpropan-2-yl)propanamide [Compound 15]”: the “Primary Assay (SrT1 increase)” value is “III (activity III > 30 SrT1 increase)”.

For the compound `CC(C)(Cc1ccc(F)c(F)c1)NC(=O)C1CCCN1` (stereo not drawn) [Compound 24, N-(1-(3,4-difluorophenyl)-2-methylpropan-2-yl)pyrrolidine-2-carboxamide], the “Primary Assay (SrT1 increase)” value is on record as “II (activity II 10-30%)”.

As to “1-(3,4-difluorophenyl)-2-methylpropan-2-yl 2-aminoethanoate [Compound 21]”, the “Primary Assay (SrT1 increase)” value is recorded as “II (activity II 10-30%)”.

Regarding `C[C@H](N)CC(=O)OC(C)(C)Cc1ccc(Cl)cc1` [Compound 18, (S)-1-(4-chlorophenyl)-2-methylpropan-2-yl 3-aminobutanoate], the “Primary Assay (SrT1 increase)” value is on record as “I (activity I < 10%)”.

As for `CC(N)C(=O)OC(C)(C)Cc1ccc(F)c(F)c1` (stereo not drawn) [Compound 3, 1-(3,4-difluorophenyl)-2-methylpropan-2-yl 2-aminopropanoate], the “Primary Assay (SrT1 increase)” value is reported as “III (activity III > 30 SrT1 increase)”.

For `CC(C)(Cc1ccc(Cl)cc1)OC(=O)C(N)CO` (stereo not drawn) [Compound 16, 1-(4-chlorophenyl)-2-methylpropan-2-yl 2-amino-3-hydroxypropanoate], the “Primary Assay (SrT1 increase)” value is on record as “II (activity II 10-30%)”.

Take `CC(N)C(=O)OC(C)(C)Cc1ccc(F)cc1` (stereo not drawn) [Compound 4, 1-(4-fluorophenyl)-2-methylpropan-2-yl 2-aminopropanoate]: the “Primary Assay (SrT1 increase)” value is on record as “II (activity II 10-30%)”.

For the compound `CNC(C)C(=O)OC(C)(C)Cc1ccc(Cl)cc1` (stereo not drawn) [Compound 23, 1-(4-chlorophenyl)-2-methylpropan-2-yl 2-(methylamino)propanoate], the “Primary Assay (SrT1 increase)” value is “I (activity I < 10%)”.

For `CC(C)C(N)C(=O)OC(C)(C)Cc1ccc(Cl)cc1` (stereo not drawn) [Compound 8, 1-(4-chlorophenyl)-2-methylpropan-2-yl 2-amino-3-methylbutanoate], the “Primary Assay (SrT1 increase)” value is reported as “II (activity II 10-30%)”.

Regarding `CC(C)(Cc1ccc(Cl)cc1)OC(=O)CCN` [Compound 17, 1-(4-chlorophenyl)-2-methylpropan-2-yl 3-aminopropanoate], the “Primary Assay (SrT1 increase)” value is given as “I (activity I < 10%)”.

The test system of a further test is sAPPα. Put plainly: sAPPα levels in the presence of ApoE4 (AlphaLISA). The following applies: in the presence of ApoE4 (ApoE4-transfected cells). It is filed as cell-based. The protocol:
(§1) sAPPα or sAPPβ secreted into the cellular media are determined with sAPPα or sAPPβ AlphaLISA immunoassay kits (PerkinElmer) according to the manufacturer's protocol with some modifications. The standards, blanks, and media are diluted with the buffer provided in the kit and added to the plate. During the first incubation step, the analyte is captured either by an antibody recognizing the α-secretase cleavage site at sAPPα C-terminus (clone 2B3) or the sAPPβ C-terminus, and then by a second biotin-labeled antibody specific to the N-terminal common domain of sAPP. In the second incubation step, the biotinylated anti-analyte antibody is bound to the streptavidin-coated donor beads. At the end of this reaction, the plates are read on an EnSpire Alpha 2390 multilabel plate reader equipped with the AlphaScreen module. The Aβ1-42 or 1-40 are determined from media and/or cells using Life Science's sandwich ELISA kit. The levels of Aβ are quantified from a standard curve and normalized to total cellular protein (Spilman et al. (2014) Brain Res. 1551: 25-44; Theendakara et al. (2013) Proc. Natl. Acad. Sci. USA, 10(45): 18303-18308), Tau and p-tau are determined from cell extracts by a solid phase double antibody sandwich ELISA technology designed for quantitative determination of phospho-tau (Antibodies-Online). APP and p-APP are determined by the DuoSet IC ELISA (R&D Systems) to measure phosphorylated APP in cell lysates. An immobilized capture antibody specific for APP binds both phosphorylated and unphosphorylated APP. After unbound material is washed away, a biotinylated detection antibody is used to detect either APP or phosphor-APP utilizing a standard HRP format. Using these assay procedures we notice a significant increase in p-tau and p-APP levels in ApoE4-transfected cells. It can be determined whether the primary “hits” reverse the ApoE4-mediated APP-Thr phosphorylation and tau-phosphorylation.
Consider `Cc1c[nH]c(-c2cnc(NCCNc3ccc(C#N)cn3)nc2-c2ccc(Cl)cc2Cl)n1` [CHIR99021], for which the sAPPα levels result is reported as “reversed the reduction in sAPPα”.

The same test, now with this note: in the presence of ApoE4 (ApoE4-transfected cells); listed as CHIR.
With `Cc1c[nH]c(-c2cnc(NCCNc3ccc(C#N)cn3)nc2-c2ccc(Cl)cc2Cl)n1` [CHIR99021], the sAPPα levels result is given as “restores sAPPα levels”.

In another test the test system is p-APP. Put plainly: APP phosphorylation (p-APP) in cells transfected with ApoE4.
Settings: not given
It is filed as cell-based. The protocol: as §1
For `CC(C)CC(=O)Nc1[nH]nc2c1CN(C(=O)C1CCN(C)CC1)C2(C)C` [PHA793887], the “APP phosphorylation (p-APP)” value is “attenuated”.

As to `Cc1c[nH]c(-c2cnc(NCCNc3ccc(C#N)cn3)nc2-c2ccc(Cl)cc2Cl)n1` [CHIR99021], the “APP phosphorylation (p-APP)” value is “reversed”.

Staying with this test, now noted: listed as CHIR.
Regarding `Cc1c[nH]c(-c2cnc(NCCNc3ccc(C#N)cn3)nc2-c2ccc(Cl)cc2Cl)n1` [CHIR99021], the “APP phosphorylation (p-APP)” value is on record as “reduces APP phosphorylation”.

The next test has as its system p-tau. Put plainly: tau phosphorylation (p-tau) in cells transfected with ApoE4. It is filed as cell-based.
Settings: not given
The protocol:
sAPPα or sAPPβ secreted into the cellular media are determined with sAPPα or sAPPβ AlphaLISA immunoassay kits (PerkinElmer) according to the manufacturer's protocol with some modifications. The standards, blanks, and media are diluted with the buffer provided in the kit and added to the plate. During the first incubation step, the analyte is captured either by an antibody recognizing the α-secretase cleavage site at sAPPα C-terminus (clone 2B3) or the sAPPβ C-terminus, and then by a second biotin-labeled antibody specific to the N-terminal common domain of sAPP. In the second incubation step, the biotinylated anti-analyte antibody is bound to the streptavidin-coated donor beads. At the end of this reaction, the plates are read on an EnSpire Alpha 2390 multilabel plate reader equipped with the AlphaScreen module. The Aβ1-42 or 1-40 are determined from media and/or cells using Life Science's sandwich ELISA kit. The levels of Aβ are quantified from a standard curve and normalized to total cellular protein (Spilman et al. (2014) Brain Res. 1551: 25-44; Theendakara et al. (2013) Proc. Natl. Acad. Sci. USA, 10(45): 18303-18308), Tau and p-tau are determined from cell extracts by a solid phase double antibody sandwich ELISA technology designed for quantitative determination of phospho-tau (Antibodies-Online). […]
`CC(C)CC(=O)Nc1[nH]nc2c1CN(C(=O)C1CCN(C)CC1)C2(C)C` [PHA793887]: the p-tau result was “attenuated”.

The next test relates to obese mice.
Assay: not given
The following applies: cited from earlier work.
Consider `O=C(Nc1ccccc1-c1cn2c(CN3CCNCC3)csc2n1)c1cnc2ccccc2n1` [SRT1720], for which the extension of lifespan is listed as 44%.
